Results as given in patent US8383581B2, “Short-chain peptides as parathyroid hormone (PTH) receptor agonist” (Cadila Healthcare Limited, priority 2009, dated 2013).
Where a SMILES comes first, the peptide text is derived from it. [ ]: non-standard residue; d: D form. ξ: configuration not given here. Arg(NO2) = N=C(NCCC[C@H](N)C(=O)O)N[N+](=O)[O-]; αMePhe(2,6-F2) = C[C@](N)(Cc1c(F)cccc1F)C(=O)O; ξαMePhe(2,6-F2) = CC(N)(Cc1c(F)cccc1F)C(=O)O; αMePhe(2-F) = C[C@](N)(Cc1ccccc1F)C(=O)O; ξαMePhe(2-F) = CC(N)(Cc1ccccc1F)C(=O)O; hArg = N=C(N)NCCCC[C@H](N)C(=O)O; Cit = NC(=O)NCCC[C@H](N)C(=O)O; Nle = CCCC[C@H](N)C(=O)O; Orn = NCCC[C@H](N)C(=O)O; Ac5c = NC1(C(=O)O)CCCC1; Aib = CC(C)(N)C(=O)O

How the values were obtained:
Format in all cases: in vitro ADME
[1] = Stability of peptides in human plasma; details: human, plasma; for metabolised at 24 h, 2 μM: pH 7.8
Outline: (§1)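 Peptides at 2 μM final incubated 0–24 h at 37 °C (50 mM triethanolamine-HCl, pH 7.8) in each matrix, matrix level set to degrade ~50% PTH(1-34) in 1 h; TFA-quenched, C18 HPLC at 206 nm with ESI-MS peak identification; percent degradation from peak areas at each time point.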

[2] = Stability of peptides in simulated gastric fluid (pH 1.5; HCl, NaCl and Pepsin); details: pH 1.5; for % degradation of peptides in 24 h when incubated with simulated gastric fluid: 2 μM; for half-life (t1/2) in simulated gastric fluid / half-life: simulated gi fluid
[3] = Stability of peptides in simulated intestinal fluid (pH 7.5); details: pH 7.5; for half-life (t1/2) in simulated intestinal fluid / half-life: simulated gi fluid; for % degradation of peptides in 24 h when incubated with simulated intestinal fluid: 2 μM
Outline: as §1

[4] = Stability of peptides in human liver microsomes; details: human, microsomes; for % degradation of peptides in 24 h when incubated with liver microsomes: 2 μM, pH 7.8
Outline: as §1

Structure (SMILES)	half-life [1] [min]	metabolised at 24 h, 2 μM [1] [%]	% degradation of peptides in 24 h when incubated with simulated gastric fluid [2] [%]	half-life (t1/2) in simulated gastric fluid [2]	half-life (t1/2) in simulated intestinal fluid [3]	% degradation of peptides in 24 h when incubated with simulated intestinal fluid [3] [%]	half-life [4] [min]	% degradation of peptides in 24 h when incubated with liver microsomes [4] [%]	half-life (t1/2) in human plasma [1]	half-life [2] [min]	half-life [3] [min]
CCCC[C@H](NC(=O)C(C)(Cc1c(F)cccc1F)NC(=O)[C@H](CCC(N)=O)NC(=O)[C@@H](NC(=O)[C@H](CCC(=O)O)NC(=O)C(C)(C)NC(=O)[C@@H](NC(=O)C1(N)CCCC1)C(C)C)[C@@H](C)CC)C(=O)N[C@@H](Cc1c[nH]cn1)C(=O)N[C@@H](CCC(N)=O)C(=O)N[C@@H](CCCCNC(=N)N)C(=O)NC(C)(C)C(=O)NC(C)(Cc1c(F)cccc1F)C(=O)NC(C)(Cc1c(F)cccc1F)C(N)=O (some centres unmarked) [Seq. ID. 240] (H-[Ac5c]V[Aib]EIQ[ξαMePhe(2,6-F2)][Nle]HQ[hArg][Aib][ξαMePhe(2,6-F2)][ξαMePhe(2,6-F2)]-NH2)	480	71	14	(8) h	(6) h	40	60	78	–	–	–
CCCC[C@H](NC(=O)C(C)(Cc1ccccc1F)NC(=O)[C@H](CCC(N)=O)NC(=O)[C@@H](NC(=O)[C@H](CCC(=O)O)NC(=O)C(C)(C)NC(=O)[C@@H](NC(=O)C1(N)CCCC1)C(C)C)[C@@H](C)CC)C(=O)N[C@@H](Cc1c[nH]cn1)C(=O)N[C@@H](CCC(N)=O)C(=O)N[C@@H](CCCCNC(=N)N)C(=O)NC(C)(C)C(=O)N[C@@H](CCCNC(=N)N[N+](=O)[O-])C(=O)NC(C)(Cc1ccccc1F)C(N)=O (some centres unmarked) [Seq. ID. 250] (H-[Ac5c]V[Aib]EIQ[ξαMePhe(2-F)][Nle]HQ[hArg][Aib][Arg(NO2)][ξαMePhe(2-F)]-NH2)	480	78	14	(8) h	(6) h	43	60	80	–	–	–
CCCC[C@H](NC(=O)C(C)(Cc1c(F)cccc1F)NC(=O)[C@H](CCC(N)=O)NC(=O)[C@@H](NC(=O)[C@H](CCC(=O)O)NC(=O)C(C)(C)NC(=O)[C@@H](NC(=O)C1(N)CCCC1)C(C)C)[C@@H](C)CC)C(=O)N[C@@H](Cc1c[nH]cn1)C(=O)N[C@@H](CCC(N)=O)C(=O)N[C@@H](CCCCNC(=N)N)C(=O)NC(C)(C)C(=O)N[C@@H](CCCNC(=N)N[N+](=O)[O-])C(=O)NC(C)(Cc1ccccc1F)C(N)=O (some centres unmarked) [Seq. ID. 260] (H-[Ac5c]V[Aib]EIQ[ξαMePhe(2,6-F2)][Nle]HQ[hArg][Aib][Arg(NO2)][ξαMePhe(2-F)]-NH2)	480	70	15	(8) h	(6) h	41	60	77	–	–	–
CCCC[C@H](NC(=O)C(C)(Cc1ccccc1F)NC(=O)[C@H](CCC(N)=O)NC(=O)[C@@H](NC(=O)[C@H](CCC(=O)O)NC(=O)C(C)(C)NC(=O)[C@@H](NC(=O)C1(N)CCCC1)C(C)C)[C@@H](C)CC)C(=O)N[C@@H](Cc1c[nH]cn1)C(=O)N[C@@H](CCC(N)=O)C(=O)N[C@@H](CCCCNC(=N)N)C(=O)NC(C)(C)C(=O)N[C@@H](CCCNC(=N)N[N+](=O)[O-])C(=O)NC(C)(Cc1c(F)cccc1F)C(N)=O (some centres unmarked) [Seq. ID. 270] (H-[Ac5c]V[Aib]EIQ[ξαMePhe(2-F)][Nle]HQ[hArg][Aib][Arg(NO2)][ξαMePhe(2,6-F2)]-NH2)	–	78	100	–	–	100	30	100	(9) h	30	30
CCCC[C@H](NC(=O)C(C)(Cc1ccccc1F)NC(=O)[C@H](CCC(N)=O)NC(=O)[C@@H](NC(=O)[C@H](CCC(=O)O)NC(=O)C(C)(C)NC(=O)[C@@H](NC(=O)C(C)(C)N)C(C)C)[C@@H](C)CC)C(=O)N[C@@H](Cc1c[nH]cn1)C(=O)N[C@@H](CCC(N)=O)C(=O)N[C@@H](CCCN)C(=O)NC(C)(C)C(=O)N[C@@H](CCCNC(N)=O)C(=O)NC(C)(Cc1c(F)cccc1F)C(N)=O (some centres unmarked) [Seq. ID. 290] (H-[Aib]V[Aib]EIQ[ξαMePhe(2-F)][Nle]HQ[Orn][Aib][Cit][ξαMePhe(2,6-F2)]-NH2)	–	75	100	–	–	100	30	100	(9) h	30	30
CCCC[C@H](NC(=O)C(C)(Cc1ccccc1F)NC(=O)[C@H](CCC(N)=O)NC(=O)[C@@H](NC(=O)[C@H](CCC(=O)O)NC(=O)C(C)(C)NC(=O)[C@@H](NC(=O)C1(N)CCCC1)C(C)C)[C@@H](C)CC)C(=O)N[C@@H](Cc1c[nH]cn1)C(=O)N[C@@H](CCC(N)=O)C(=O)N[C@@H](CCCN)C(=O)N[C@@H](C)C(=O)NC(C)(Cc1c(F)cccc1F)C(=O)NC(C)(Cc1ccccc1F)C(N)=O (some centres unmarked) [Seq. ID. 315] (H-[Ac5c]V[Aib]EIQ[ξαMePhe(2-F)][Nle]HQ[Orn]A[ξαMePhe(2,6-F2)][ξαMePhe(2-F)]-NH2)	–	71	100	–	–	100	30	100	(9) h	30	30
CCCC[C@H](NC(=O)[C@](C)(Cc1ccccc1F)NC(=O)[C@H](CCC(N)=O)NC(=O)[C@@H](NC(=O)[C@H](CCC(=O)O)NC(=O)C(C)(C)NC(=O)[C@@H](NC(=O)C(C)(C)N)C(C)C)[C@@H](C)CC)C(=O)N[C@@H](Cc1c[nH]cn1)C(=O)N[C@@H](CCC(N)=O)C(=O)N[C@@H](CCCN)C(=O)N[C@@H](C)C(=O)N[C@@H](CCCNC(=N)N[N+](=O)[O-])C(=O)N[C@@](C)(Cc1ccccc1F)C(N)=O [Seq. ID. 329] (H-[Aib]V[Aib]EIQ[αMePhe(2-F)][Nle]HQ[Orn]A[Arg(NO2)][αMePhe(2-F)]-NH2)	–	70	100	–	–	100	30	100	(9) h	30	30
CCCC[C@H](NC(=O)C(C)(Cc1ccccc1F)NC(=O)[C@H](CCC(N)=O)NC(=O)[C@@H](NC(=O)[C@H](CCC(=O)O)NC(=O)C(C)(C)NC(=O)[C@@H](NC(=O)C(C)(C)N)C(C)C)[C@@H](C)CC)C(=O)N[C@@H](Cc1c[nH]cn1)C(=O)N[C@@H](CCC(N)=O)C(=O)N[C@@H](CCCNC(N)=O)C(=O)N[C@@H](C)C(=O)N[C@@H](CCCNC(N)=O)C(=O)NC(C)(Cc1ccccc1F)C(N)=O (some centres unmarked) [Seq. ID. 345] (H-[Aib]V[Aib]EIQ[ξαMePhe(2-F)][Nle]HQ[Cit]A[Cit][ξαMePhe(2-F)]-NH2)	–	70	100	–	–	100	30	100	(9) h	30	30
CCCC[C@H](NC(=O)C(C)(Cc1ccccc1F)NC(=O)[C@H](CCC(N)=O)NC(=O)[C@@H](NC(=O)[C@H](CCC(=O)O)NC(=O)C(C)(C)NC(=O)[C@@H](NC(=O)C1(N)CCCC1)C(C)C)[C@@H](C)CC)C(=O)N[C@@H](Cc1c[nH]cn1)C(=O)N[C@@H](CCC(N)=O)C(=O)N[C@@H](CCCNC(N)=O)C(=O)NC(C)(C)C(=O)NC(C)(Cc1c(F)cccc1F)C(=O)NC(C)(Cc1ccccc1F)C(N)=O (some centres unmarked) [Seq. ID. 380] (H-[Ac5c]V[Aib]EIQ[ξαMePhe(2-F)][Nle]HQ[Cit][Aib][ξαMePhe(2,6-F2)][ξαMePhe(2-F)]-NH2)	> 1440	0	50	–	–	00	120	86	–	240	> 1440
CCCC[C@H](NC(=O)[C@](C)(Cc1c(F)cccc1F)NC(=O)[C@H](CCC(N)=O)NC(=O)[C@@H](NC(=O)[C@H](CCC(=O)O)NC(=O)C(C)(C)NC(=O)[C@@H](NC(=O)C(C)(C)N)C(C)C)[C@@H](C)CC)C(=O)N[C@@H](Cc1c[nH]cn1)C(=O)N[C@@H](CCC(N)=O)C(=O)N[C@@H](CCCNC(N)=O)C(=O)NC(C)(C)C(=O)N[C@@](C)(Cc1c(F)cccc1F)C(=O)N[C@@](C)(Cc1c(F)cccc1F)C(N)=O [Seq. ID. 390] (H-[Aib]V[Aib]EIQ[αMePhe(2,6-F2)][Nle]HQ[Cit][Aib][αMePhe(2,6-F2)][αMePhe(2,6-F2)]-NH2)	> 1440	0	55	–	–	00	120	84	–	240	> 1440
